From patent US20220213178A1, “Enhanced Transfection” (The University of Nottingham, priority 2019, published 2022)

Tests used:
Type in all cases: cell-based
[1] = test system: LCL lymphoblastoid human B cells; assay: GET transfection of pCMV-Gluc pDNA into LCL cells (FIG. 3); conditions: 20,000 cells, 24 hours post-transfection of 1 μs pCMV-Gluc pDNA with GET; short exposures of TPA
Procedure: Experiment on 20,000 LCL lymphoblastoid human B cells, measured at 24 hours post-transfection of […] pCMV-Gluc pDNA with GET. T=TPA(μM), S=SAHA (μM). TPA is shown to have the most effect on transfection in LCL cells, and it is enhanced by SAHA. There is effectively no transfection without these modulators.

[2] = test system: RAW264.7 mouse macrophage cells; assay: GET transfection of pCMV-Gluc pDNA into RAW264.7 cells (FIG. 2); conditions: 20,000 cells, 24 hours post-transfection of 1 μg pCMV-Gluc pDNA with GET
Procedure: Experiment on 20,000 RAW264.7 mouse macrophage cells, measured at 24 hours post-transfection of 1 μg pCMV-Gluc pDNA with GET. T=TPA(μM), S=SAHA (μM).

[3] = test system: T2 hybrid human T/B cells; assay: GET transfection of pCMV-Gluc pDNA into T2 cells (FIG. 1); conditions: 20,000 cells, 24 hours post-transfection of 1 μg pCMV-Gluc pDNA with GET
Procedure: Experiment on 20,000 T2 hybrid human T/B cells, measured at 24 hours post-transfection of 1 μg pCMV-Gluc pDNA with GET. T=TPA(μM), S=SAHA (μM). TPA is shown as the major effect on transfection efficiency in T2 cells.

Structure (SMILES) | transfection of LCL cells (Gluc) [1] | transfection of RAW264.7 cells (Gluc) [2] | transfection of T2 cells (Gluc) [3]
O=C(CCCCCCC(=O)Nc1ccccc1)NO [SAHA, suberoylanilide hydroxamic acid] | significantly enhances transfection | significantly enhances transfection | 
CCCCCCCCCCCCCC(=O)O[C@@H]1[C@@H](C)[C@@]2(O)[C@@H](C=C(CO)C[C@]3(O)C(=O)C(C)=C[C@@H]23)[C@@H]2C(C)(C)[C@]12OC(C)=O [TPA, phorbol 12-myristate 13-acetate] | significantly enhances transfection |  | significantly enhances transfection
